The data set can be described thus: Solubility of the compound in 0.1 M phosphate buffer at 600 uM at pH 7.4 after 24 hrs by LC/MS/MS analysis. Conditions: for solubility at 24 h, 600 µM: pH 7.4.

Consider 34 compounds from ChEMBL document CHEMBL1287767, “Experimental solubility profiling of marketed CNS drugs, exploring solubility limit of CNS discovery candidate” (Bioorg Med Chem Lett, 2010).

Values after ≈ are worked out from the molar mass of the structure shown. A value given as a limit tells only on which side of the number the result lay.

For the setting “0.1 M phosphate buffer”, `CNS(=O)(=O)CCc1ccc2[nH]cc(C3CCN(C)CC3)c2c1` had a solubility at 24 h, 600 µM above 500 µM.

For `CCCN1C[C@H](CSC)C[C@@H]2c3cccc4[nH]cc(c34)C[C@H]21` [PERGOLIDE], the solubility at 24 h, 600 µM (0.1 M phosphate buffer) came to 2.1 µM (≈ 0.66 µg/mL).

`CC(C)CC(N(C)C)C1(c2ccc(Cl)cc2)CCC1` (centres undefined) [SIBUTRAMINE] displayed a solubility at 24 h, 600 µM (0.1 M phosphate buffer) of 143 µM (≈ 40 µg/mL). In turn, `COCC1CN=C(c2ccccc2Cl)c2cc(Br)ccc2N1C` (centres undefined) [METACLAZEPAM] returned a solubility at 24 h, 600 µM (0.1 M phosphate buffer) of 3.52 µM (≈ 1.39 µg/mL).

In the case of `CNS(=O)(=O)Cc1ccc2[nH]cc(CCN(C)C)c2c1`, the solubility at 24 h, 600 µM (0.1 M phosphate buffer) is above 500 µM. `O=C1CCc2ccc(OCCCCN3CCN(c4cccc(Cl)c4Cl)CC3)cc2N1` [ARIPIPRAZOLE] registered a solubility at 24 h, 600 µM (0.1 M phosphate buffer) of 1.03 µM (≈ 0.462 µg/mL). Turning to `NC(=O)C[S+]([O-])C(c1ccccc1)c1ccccc1` (centres undefined) [MODAFINIL], under “0.1 M phosphate buffer”, the solubility at 24 h, 600 µM was above 500 µM.

For the compound `CN(C)CCc1c[nH]c2ccc(Cn3cncn3)cc12` [RIZATRIPTAN], the solubility at 24 h, 600 µM (0.1 M phosphate buffer) was above 500 µM.

In turn, `COC(=O)C(c1ccccc1)C1CCCCN1` (centres undefined) [METHYLPHENIDATE] returned a solubility at 24 h, 600 µM (0.1 M phosphate buffer) of 411 µM (≈ 95.9 µg/mL).

Regarding `NC(=O)N1c2ccccc2C=Cc2ccccc21` [CARBAMAZEPINE], the solubility at 24 h, 600 µM (0.1 M phosphate buffer) is above 490 µM. The same measure, in the same setting: the value for `CNCC[C@@H](Oc1ccccc1C)c1ccccc1` [ATOMOXETINE] was above 500 µM. The compound `CNCC[C@H](Oc1cccc2ccccc12)c1cccs1` [DULOXETINE] displayed a solubility at 24 h, 600 µM (buffer) above 500 µM. The compound `NC(=O)CCC/N=C(\c1ccc(Cl)cc1)c1cc(F)ccc1O` [PROGABIDE] displayed a solubility at 24 h, 600 µM (0.1 M phosphate buffer) of 55.2 µM (≈ 18.5 µg/mL). Where the note is “0.1 M phosphate buffer”, `O=C(O)C1N=C(c2ccccc2)c2cc(Cl)ccc2NC1=O` (centres undefined) [CLORAZEPIC ACID] yielded a solubility at 24 h, 600 µM above 495 µM.

`CCC1(c2cccc(O)c2)CCCCN(C)C1` (centres undefined) [MEPTAZINOL] returned a solubility at 24 h, 600 µM (0.1 M phosphate buffer) above 500 µM. In turn, `CCCN(CCC)CCc1cccc2c1CC(=O)N2` [ROPINIROLE] returned a solubility at 24 h, 600 µM (0.1 M phosphate buffer) above 500 µM. `CN(C)CCCC1(c2ccc(F)cc2)OCc2cc(C#N)ccc21` (centres undefined) [CITALOPRAM] yielded a solubility at 24 h, 600 µM (0.1 M phosphate buffer) above 500 µM.

Compound `CCCC(CCC)C(=O)O` [VALPROIC ACID] gave a solubility at 24 h, 600 µM (0.1 M phosphate buffer) above 500 µM.

In the case of `CN[C@H]1CC[C@@H](c2ccc(Cl)c(Cl)c2)c2ccccc21` [SERTRALINE], the solubility (buffer, pH 7.4, 24 h, 600 µM) came out at 350 µM (≈ 107 µg/mL).

As to `CCN(CC)C(=O)C1(c2ccccc2)CC1CN` (centres undefined), the solubility at 24 h, 600 µM (0.1 M phosphate buffer) is above 500 µM.

In the case of `O=C(O[C@@H]1C[C@@H]2C[C@H]3C[C@H](C1)N2CC3=O)c1c[nH]c2ccccc12` [DOLASETRON], the solubility at 24 h, 600 µM (0.1 M phosphate buffer) worked out at 195 µM (≈ 63.3 µg/mL). On to `Cc1nnc2n1-c1ccc(Cl)cc1C(c1ccccc1Cl)=NC2` [TRIAZOLAM], for which the solubility at 24 h, 600 µM (0.1 M phosphate buffer) turned out to be 35.9 µM (≈ 12.3 µg/mL). As to `O=C(c1ccccc1)c1ccc2n1CCC2C(=O)O` (centres undefined) [KETOROLAC], the solubility at 24 h, 600 µM (0.1 M phosphate buffer) is above 459 µM. `Fc1ccc([C@@H]2CCNC[C@H]2COc2ccc3c(c2)OCO3)cc1` [PAROXETINE] returned a solubility at 24 h, 600 µM (0.1 M phosphate buffer) above 500 µM. The compound `C=CC(N)CCC(=O)O` (centres undefined) [VIGABATRIN] gave a solubility at 24 h, 600 µM (0.1 M phosphate buffer) above 500 µM. Still for that read-out and setting: the value for `NC(=O)OCC(COC(N)=O)c1ccccc1` [FELBAMATE] was above 500 µM; that for `CN1C(=O)CN=C(c2ccccc2F)c2cc([N+](=O)[O-])ccc21` [FLUNITRAZEPAM] was 54 µM (≈ 16.9 µg/mL); that for `CCN1CCCC1CNC(=O)c1cc(S(=O)(=O)CC)c(N)cc1OC` (centres undefined) [AMISULPRIDE] was above 500 µM. On the same count and under the same terms, the result for `C[C@@](Cc1ccc(O)c(O)c1)(NN)C(=O)O.O` [CARBIDOPA] reads above 500 µM; that for `CCOC(=O)Nc1ccc(NCc2ccc(F)cc2)nc1N` [FLUPIRTINE], above 500 µM. Take `COCCCC/C(=N\OCCN)c1ccc(C(F)(F)F)cc1` [FLUVOXAMINE]: the solubility at 24 h, 600 µM (0.1 M phosphate buffer) was above 500 µM.

For the compound `CCN[C@@H](C)Cc1cccc(C(F)(F)F)c1` [DEXFENFLURAMINE], the solubility at 24 h, 600 µM (0.1 M phosphate buffer) came to 500 µM (≈ 116 µg/mL). On the same count and under the same terms, the result for `CC(N)Cc1ccccc1` (centres undefined) [AMPHETAMINE] reads above 500 µM. `CN1[C@@H]2CC[C@H]1C[C@@H](OC(=O)c1c[nH]c3ccccc13)C2` [TROPISETRON]: the solubility at 24 h, 600 µM (0.1 M phosphate buffer) was above 500 µM.

As a reminder, the solubility is the dissolved amount per volume that the medium holds.
